IC50 data for 31 molecules are collected here from patent publication US20170334899A1, “AMINO-SUBSTITUTED ISOTHIAZOLES” (Bayer Pharma Aktiengesellschaft, priority 2014, published 2017).

pIC50: −log10 of the molar value.

The subject of this test is human cervical tumor cell line HeLa (ATCC CCL-2). Briefly: SAC-Formation - Nocodazole-Induced Assay. It is filed as cell-based. Particulars: Homo sapiens, HeLa, 24 h, HeLa cells, nocodazole 0.1 μg/ml together with test compound, decrease of mitotic cells (phospho-histone H3 Ser10). Summed up: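 Loss of phospho-histone H3 Ser10-positive cells, counted against Hoechst-stained nuclei by high-content imaging, marked mitotic breakthrough. Compounds (0.005–20 μM, 0.5% DMSO) were co-dosed with 0.1 μg/ml nocodazole onto HeLa cells for 24 h at 37 °C. Curves were fitted with a four-parameter Hill equation.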
Take `Cc1nsc(Nc2cnc(C(F)(F)F)cn2)c1C(=O)Nc1ccc(OC2CCN(C)CC2)nc1` [Example 220, 3-methyl-N-{6-[(1-methylpiperidin-4-yl)oxy]pyridin-3-yl}-5-{[5-(trifluoromethyl)pyrazin-2-yl]amino}-1,2-thiazole-4-carboxamide]: the pIC50 was 5.96.

Take `Cc1nsc(Nc2cnc3ccccc3n2)c1C(=O)Nc1ccc(NCCC(=O)OC(C)(C)C)nc1` [Example 236, tert-butyl N-[5-({[3-methyl-5-(quinoxalin-2-ylamino)-1,2-thiazol-4-yl]carbonyl}amino)pyridin-2-yl]-beta-alaninate]: the pIC50 is 5.52.

As for `CNS(=O)(=O)c1ccc(NC(=O)c2c(C)nsc2Nc2cnc(C(F)(F)F)cn2)cc1` [Example 212, 3-methyl-N-[4-(methylsulfamoyl)phenyl]-5-{[5-(trifluoromethyl)pyrazin-2-yl]amino}-1,2-thiazole-4-carboxamide], the pIC50 is 5.70.

For `Cc1nsc(Nc2cnc3ccccc3n2)c1C(=O)Nc1cccc(NC(=O)C(C)(C)C)c1` [Example 186, N-{3-[(2,2-dimethylpropanoyl)amino]phenyl}-3-methyl-5-(quinoxalin-2-ylamino)-1,2-thiazole-4-carboxamide], the negative logarithm of the IC50 (pIC50) was 6.20.

Turning to `Cc1nsc(Nc2cnc3ccccc3n2)c1C(=O)Nc1ccc(NC2CCCN(C(=O)OC(C)(C)C)C2)nc1` (stereo not shown) [Example 241, tert-butyl 3-{[5-({[3-methyl-5-(quinoxalin-2-ylamino)-1,2-thiazol-4-yl]carbonyl}amino)pyridin-2-yl]amino}piperidine-1-carboxylate], the pIC50 is 5.85.

Regarding `Cc1nsc(Nc2ccc(C#N)cn2)c1C(=O)Nc1cccc(N)c1` [Example 180, N-(3-aminophenyl)-5-[(5-cyanopyridin-2-yl)amino]-3-methyl-1,2-thiazole-4-carboxamide], the pIC50 is 5.89.

Consider `Cc1nsc(Nc2cncc(C(F)(F)F)n2)c1C(=O)Nc1ccc(OC2CCN(C(C)C)CC2)nc1` [Example 218, N-{6-[(1-isopropylpiperidin-4-yl)oxy]pyridin-3-yl}-3-methyl-5-{[6-(trifluoromethyl)pyrazin-2-yl]amino}-1,2-thiazole-4-carboxamide], for which the pIC50 is 6.42.

As to `CNS(=O)(=O)c1ccc(NC(=O)c2c(C)nsc2Nc2cc(C#N)ccn2)cc1` [Example 210, 5-[(4-cyanopyridin-2-yl)amino]-3-methyl-N-[4-(methylsulfamoyl)phenyl]-1,2-thiazole-4-carboxamide], the negative logarithm of the IC50 (pIC50) was 5.49.

Turning to `COC(=O)CCc1cccc(NC(=O)c2c(C)nsc2Nc2ccc(C#N)cn2)c1` [Example 176, methyl 3-{3-[({5-[(5-cyanopyridin-2-yl)amino]-3-methyl-1,2-thiazol-4-yl}carbonyl)amino]phenyl}propanoate], the negative-log IC50 (pIC50) was 6.64.

As to `CCN(CC)CCNC(=O)c1cccc(NC(=O)c2c(C)nsc2Nc2cc(C#N)ccn2)c1` [Example 174, 5-[(4-cyanopyridin-2-yl)amino]-N-(3-{[2-(diethylamino)ethyl]carbamoyl}phenyl)-3-methyl-1,2-thiazole-4-carboxamide], the pIC50 was 5.24.

For the molecule `Cc1nsc(Nc2cncc(C(F)(F)F)n2)c1C(=O)Nc1ccc(OC2CCN(CC(F)F)CC2)c(F)c1` [Example 224, N-(4-{[1-(2,2-difluoroethyl)piperidin-4-yl]oxy}-3-fluorophenyl)-3-methyl-5-{[6-(trifluoromethyl)pyrazin-2-yl]amino}-1,2-thiazole-4-carboxamide], the pIC50 was 6.96.

`Cc1nsc(Nc2cnc3ccccc3n2)c1C(=O)Nc1ccc(NC(=O)C(C)(C)C)cc1` [Example 185, N-{4-[(2,2-dimethylpropanoyl)amino]phenyl}-3-methyl-5-(quinoxalin-2-ylamino)-1,2-thiazole-4-carboxamide]: the pIC50 was 5.80.

With `Cc1nsc(Nc2cnc(C(F)(F)F)cn2)c1C(=O)Nc1ccc(F)c(OC2CCN(C(=O)OC(C)(C)C)CC2)c1` [Example 229, tert-butyl 4-(2-fluoro-5-{[(3-methyl-5-{[5-(trifluoromethyl)pyrazin-2-yl]amino}-1,2-thiazol-4-yl)carbonyl]amino}phenoxy)piperidine-1-carboxylate], the pIC50 was 6.85.

For the molecule `Cc1nsc(Nc2cnc(C(F)(F)F)cn2)c1C(=O)Nc1ccc(OCCN)c(F)c1` [Example 221, 3-N-[4-(2-aminoethoxy)-3-fluorophenyl]-3-methyl-5-{[5-(trifluoromethyl)pyrazin-2-yl]amino}-1,2-thiazole-4-carboxamide], the negative logarithm of the IC50 (pIC50) was 7.04.

As for `Cc1nsc(Nc2cc(C#N)ccn2)c1C(=O)Nc1ccc(C(=O)OC(C)(C)C)cc1` [Example 182, tert-butyl 4-[({5-[(4-cyanopyridin-2-yl)amino]-3-methyl-1,2-thiazol-4-yl}carbonyl)amino]benzoate], the pIC50 is 7.60.

In the case of `Cc1nsc(Nc2cncc(C(F)(F)F)n2)c1C(=O)Nc1ccc(OCCN)nc1` [Example 196, N-[6-(2-aminoethoxy)pyridin-3-yl]-3-methyl-5-{[6-(trifluoromethyl)pyrazin-2-yl]amino}-1,2-thiazole-4-carboxamide], the pIC50 was 5.89.

Consider `Cc1nsc(Nc2cc(C#N)ccn2)c1C(=O)Nc1ccc(OCCC(=O)OC(C)(C)C)nc1` [Example 200, tert-butyl 3-({5-[({5-[(4-cyanopyridin-2-yl)amino]-3-methyl-1,2-thiazol-4-yl}carbonyl)amino]pyridin-2-yl}oxy)propanoate], for which the pIC50 is 6.34.

On to `Cc1nsc(Nc2cncc(C(F)(F)F)n2)c1C(=O)Nc1ccc(C(=O)OC(C)(C)C)cc1` [Example 193, tert-butyl tert-butyl 4-{[(3-methyl-5-{[6-(trifluoromethyl)pyrazin-2-yl]amino}-1,2-thiazol-4-yl)carbonyl]amino}benzoate], for which the negative-log IC50 (pIC50) was 6.33.

For the molecule `Cc1nsc(Nc2cc(C#N)ccn2)c1C(=O)Nc1ccc(NC2CCCNC2)nc1` (stereo not shown) [Example 242, 5-[(4-cyanopyridin-2-yl)amino]-3-methyl-N-[6-(piperidin-3-ylamino)pyridin-3-yl]-1,2-thiazole-4-carboxamide], the pIC50 is 5.59.

With `Cc1nsc(Nc2cnc3ccccc3n2)c1C(=O)Nc1ccc(Nc2ccc(F)c(F)c2)nc1` [Example 245, N-{6-[(3,4-difluorophenyl)amino]pyridin-3-yl}-3-methyl-5-(quinoxalin-2-ylamino)-1,2-thiazole-4-carboxamide], the negative-log IC50 (pIC50) is 5.74.

`Cc1nsc(Nc2cncc(C(F)(F)F)n2)c1C(=O)Nc1ccc(C(=O)NCCN2CCCC(F)(F)C2)cc1` [Example 214, N-(4-{[2-(3,3-difluoropiperidin-1-yl)ethyl]carbamoyl}phenyl)-3-methyl-5-{[6-(trifluoromethyl)pyrazin-2-yl]amino}-1,2-thiazole-4-carboxamide]: the pIC50 was 6.49.

As for `Cc1nsc(Nc2cncc(C(F)(F)F)n2)c1C(=O)Nc1ccc(OC2CCN(CCF)CC2)nc1` [Example 14, N-(6-{[1-(2-Fluoroethyl)piperidin-4-yl]oxy}pyridin-3-yl)-3-methyl-5-{[6-(trifluoro-methyl)pyrazin-2-yl]amino}-1,2-thiazole-4-carboxamide], the negative-log IC50 (pIC50) is 6.03.

`Cc1nsc(Nc2cnc3ccccc3n2)c1C(=O)Nc1ccc(F)c(C(N)=O)c1` [Example 202, N-(3-carbamoyl-4-fluorophenyl)-3-methyl-5-(quinoxalin-2-ylamino)-1,2-thiazole-4-carboxamide]: the negative logarithm of the IC50 (pIC50) was 6.66.

On to `Cc1nsc(Nc2cnc(C(F)(F)F)cn2)c1C(=O)Nc1ccc(OCCN)nc1` [Example 197, N-[6-(2-aminoethoxy)pyridin-3-yl]-3-methyl-5-{[5-(trifluoromethyl)pyrazin-2-yl]amino}-1,2-thiazole-4-carboxamide], for which the pIC50 is 6.00.

For the molecule `Cc1nsc(Nc2cncc(C(F)(F)F)n2)c1C(=O)Nc1cccc(S(C)(=O)=O)c1` [Example 194, 3-methyl-N-[3-(methylsulfonyl)phenyl]-5-{[6-(trifluoromethyl)pyrazin-2-yl]amino}-1,2-thiazole-4-carboxamide], the pIC50 was 6.64.

With `Cc1nsc(Nc2cc(C#N)ccn2)c1C(=O)Nc1ccc(NC(=O)OC(C)(C)C)cc1` [Example 177, tert-butyl {4-[({5-[(4-cyanopyridin-2-yl)amino]-3-methyl-1,2-thiazol-4-yl}carbonyl)amino]phenyl}carbamate], the pIC50 is 5.41.

As to `Cc1nsc(Nc2cnc(C(F)(F)F)cn2)c1C(=O)Nc1cccc(S(C)(=O)=O)c1` [Example 195, 3-methyl-N-[3-(methylsulfonyl)phenyl]-5-{[5-(trifluoromethyl)pyrazin-2-yl]amino}-1,2-thiazole-4-carboxamide], the pIC50 was 6.18.

For `Cc1nsc(Nc2cnc3ccccc3n2)c1C(=O)Nc1cccc(NC(=O)OC(C)(C)C)c1` [Example 178, tert-butyl [3-({[3-methyl-5-(quinoxalin-2-ylamino)-1,2-thiazol-4-yl]carbonyl}amino)-phenyl]carbamate], the pIC50 was 6.68.

`Cc1nsc(Nc2cncc(C(F)(F)F)n2)c1C(=O)Nc1ccc(OCCNC(=O)OC(C)(C)C)c(F)c1` [Example 216, tert-butyl [2-(2-fluoro-4-{[(3-methyl-5-{[6-(trifluoromethyl)pyrazin-2-yl]amino}-1,2-thiazol-4-yl)carbonyl]amino}phenoxy)ethyl]carbamate]: the pIC50 was 6.85.

As to `Cc1nsc(Nc2cncc(C(F)(F)F)n2)c1C(=O)Nc1ccc(OC2CCNCC2)nc1` [Example 13, 3-Methyl-N-[6-(piperidin-4-yloxy)pyridin-3-yl]-5-{[6-(trifluoromethyl)pyrazin-2-yl]-amino}-1,2-thiazole-4-carboxamide], the pIC50 is 5.34.

Turning to `Cc1nsc(Nc2ccc(C#N)cn2)c1C(=O)Nc1cccc(NC(=O)OC(C)(C)C)c1` [Example 179, tert-butyl {3-[({5-[(5-cyanopyridin-2-yl)amino]-3-methyl-1,2-thiazol-4-yl}carbonyl)amino]phenyl}carbamate], the pIC50 was 6.49.

In general, pIC50 refers to −log10 of the IC50, conventionally taken in molar units.
